{"source": "patent US8846701B2", "about": "“Pyrazolo-quinazolines” (Nerviano Medical Sciences S.R.L., priority 2008, dated 2014)"}
{"test_system": "A2780 human ovarian cancer cells", "experiment": "In vitro cell proliferation assay (CellTiter-Glo)", "format": "cell-based", "conditions": "72 hours treatment", "procedure": "A2780 human ovarian and MCF7 human breast cancer cells (1250 cells/well) were seeded in white 384 well-plates in complete medium (RPMI 1640 or EMEM plus 10% Fetal bovine serum) and treated with compounds dissolved in 0.1% DMSO, 24 h after seeding. The cells were incubated at 37° C. and 5% CO2 and after 72 hours the plates were processed using CellTiter-Glo assay (Promega) following the manufacturer's instruction. CellTiter-Glo is a homogenous method based on the quantification of the ATP present, an indicator of metabolitically active cells. ATP is quantified using a system based on luciferase and D-luciferin resulting into light generation. The luminescent signal is proportional to the number of cells present in culture.\nBriefly 25 μl/well reagent solution were added to each well and after 5 minutes shacking microplates were red by Envision (PerkinElmer) luminometer. The luminescent signal was proportional to the number of cells present in culture.\nInhibitory activity was evaluated comparing treated versus control data using Assay Explorer (MDL) program. IC50 was calculated using sigmoidal interpolation curve.", "units": {"IC50": "nM"}}
{"compound": "CCc1cccc(CC)c1NC(=O)c1nn(C)c2c1CCc1cnc(Nc3ccc(C(N)=O)cc3OC)nc1-2", "note": "[Compound 13, 8-[(4-carbamoyl-2-methoxyphenyl)amino]-N-(2,6-diethylphenyl)-1-methyl-4,5-dihydro-1H-pyrazolo[4,3-h]quinazoline-3-carboxamide]", "IC50": 100}
{"compound": "CCc1cccc(CC)c1NC(=O)c1nn(C)c2c1CCc1cnc(NC3CCN(S(C)(=O)=O)CC3)nc1-2", "note": "[Compound 57, N-(2,6-diethylphenyl)-1-methyl-8-{[1-(methylsulfonyl)piperidin-4-yl]amino}-4,5-dihydro-1H-pyrazolo[4,3-h]quinazoline-3-carboxamide]", "IC50": 130}
{"compound": "CCc1cccc(CC)c1NC(=O)c1nn(C)c2c1CCc1cnc(Nc3ccc(N(C)CCCN(C)C)cc3OC)nc1-2", "note": "[Compound 7, N-(2,6-diethylphenyl)-8-[(4-{[3-(dimethylamino)propyl](methyl)amino}-2-methoxyphenyl)amino]-1-methyl-4,5-dihydro-1H-pyrazolo[4,3-h]quinazoline-3-carboxamide]", "IC50": 140}
{"compound": "CCc1cccc(CC)c1NC(=O)c1nn(C)c2c1CCc1cnc(Nc3ccc(C(=O)NC4CCN(C)CC4)cc3OC)nc1-2", "note": "[Compound 2, N-(2,6-diethylphenyl)-8-({2-methoxy-4-[(1-methylpiperidin-4-yl)carbamoyl]phenyl}amino)-1-methyl-4,5-dihydro-1H-pyrazolo[4,3-h]quinazoline-3-carboxamide]", "IC50": 150}
{"compound": "CCc1cccc(CC)c1NC(=O)c1nn(C)c2c1CCc1cnc(Nc3ccc(N4CCN(C)CC4)cc3OC)nc1-2", "note": "[Compound 5, N-(2,6-diethylphenyl)-8-{[2-methoxy-4-(4-methylpiperazin-1-yl)phenyl]amino}-1-methyl-4,5-dihydro-1H-pyrazolo[4,3-h]quinazoline-3-carboxamide]", "IC50": 100}
{"compound": "CCc1cccc(CC)c1NC(=O)c1nn(C)c2c1CCc1cnc(NC3CCN(C(=O)CCNC)CC3)nc1-2", "note": "[Compound 66, N-(2,6-diethylphenyl)-1-methyl-8-{[1-(N-methyl-beta-alanyl)piperidin-4-yl]amino}-4,5-dihydro-1H-pyrazolo[4,3-h]quinazoline-3-carboxamide]", "IC50": 650}
{"compound": "CCc1cccc(CC)c1NC(=O)c1nn(C)c2c1CCc1cnc(Nc3ccc(N4CCN(C)CC4)cc3OC(F)(F)F)nc1-2", "note": "[Compound 3, N-(2,6-diethylphenyl)-1-methyl-8-{[4-(4-methylpiperazin-1-yl)-2-(trifluoromethoxy)phenyl]amino}-4,5-dihydro-1H-pyrazolo[4,3-h]quinazoline-3-carboxamide]", "IC50": 350}
{"compound": "Cn1nc(C(=O)N(O)C2CCCCC2)c2c1-c1nc(NC3CCCC3)ncc1CC2", "note": "[Prior art compound, N-cyclohexyl-8-(cyclopentylamino)-N-hydroxy-1-methyl-4,5-dihydro-1H-pyrazolo[4,3-h]quinazoline-3-carboxamide, reference compound]", "IC50": 3400}
{"compound": "CCc1cccc(CC)c1NC(=O)c1nn(C)c2c1CCc1cnc(NC3CCN(S(=O)(=O)CCNC)CC3)nc1-2", "note": "[Compound 56, N-(2,6-diethylphenyl)-1-methyl-8-[(1-{[2-(methylamino)ethyl]sulfonyl}piperidin-4-yl)amino]-4,5-dihydro-1H-pyrazolo[4,3-h]quinazoline-3-carboxamide]", "IC50": 150}
